The values that follow come from ChEMBL document CHEMBL4392860, “Characterization of the substrate scope of an alcohol dehydrogenase commonly used as methanol dehydrogenase” (Bioorg Med Chem Lett, 2019).

What all share (settings): DSM 2334
The subject of test [1] is Geobacillus stearothermophilus.
Description: Substrate activity at Geobacillus stearothermophilus DSM 2334 ADH expressed in Escherichia coli BL21 (DE3) assessed as Km in 50 mM HEPES buffer at pH 7.5 at 23 degC by MTT dye based Lineweaver-Burk plot analysis
In test [2] the test system is Geobacillus stearothermophilus. This is another data set of the same source.
Description: Substrate activity at Geobacillus stearothermophilus DSM 2334 ADH expressed in Escherichia coli BL21 (DE3) assessed as Kcat in 50 mM HEPES buffer at pH 7.5 at 23 degC by MTT dye based Lineweaver-Burk plot analysis
Test [3] deals with Geobacillus stearothermophilus. The source holds these as a separate data set.
Description: Substrate activity at Geobacillus stearothermophilus DSM 2334 ADH expressed in Escherichia coli BL21 (DE3) assessed as Kcat/Km ratio in 50 mM HEPES buffer at pH 7.5 at 23 degC by MTT dye based Lineweaver-Burk plot analysis

On to `OCCCO`, for which the Km in test [1] was 23.6 mM. In addition, in test [2], the kcat was 0.041 s⁻¹. Moreover, the kcat/Km in test [3] is 1.71 M⁻¹ s⁻¹.
For `CC(C)(C)O`, in test [2], the catalytic constant (kcat) stood at 0.026 s⁻¹. Moreover, the kcat/Km in test [3] was 0.046 M⁻¹ s⁻¹.
With `CC(C)O`, in test [1], the Km was 1.26 mM. Further, in test [2], the kcat amounted to 0.076 s⁻¹. Further, in test [3], the kcat/Km was determined as 60.3 M⁻¹ s⁻¹.
On to `CO`, for which the kcat in test [2] was found to be 0.013 s⁻¹. Moreover, the kcat/Km in test [3] amounted to 0.044 M⁻¹ s⁻¹.
Turning to `CCCO`, the Km in test [1] was 39.8 mM. For the same compound, in test [2], the kcat came to 0.019 s⁻¹. Besides, the kcat/Km in test [3] turned out to be 0.46 M⁻¹ s⁻¹.
For `CCCCO`, in that order: 2.45 mM, 0.004 s⁻¹ and 1.67 M⁻¹ s⁻¹.
Taken in the same sequence, the figures for `CCC(C)O` (configuration not stated) were 23.8 mM, 0.094 s⁻¹ and 3.96 M⁻¹ s⁻¹.
For `CCO`, in that order: 2.95 mM, 0.019 s⁻¹ and 6.26 M⁻¹ s⁻¹.

By Km is commonly meant the concentration of substrate that gives half-maximal velocity. The term kcat denotes the maximal rate divided by the concentration of active sites. What is called kcat/Km is the second-order rate constant that governs catalysis at low substrate concentration.
